Data from US12594276B2, “Inhibitors of human immunodeficiency virus replication” (ViiV Healthcare UK (No.5) Limited, priority 2024, dated 2026).

Experiments:
[1] = tested on: recombinant NL4-3 virus (nef section replaced with Renilla luciferase gene) in MT-2 cells; assay: HIV cell culture assay (antiviral activity, luciferase readout); format: cell-based; conditions: Renilla, NL43, MT-2 cells infected for 4-5 days with recombinant NL4-3 Renilla luciferase virus
Outline: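 Read-out: Renilla luciferase (live-cell substrate) in infected MT-2 cells after 4-5 d with serial compound dilutions. Virus from 293T transfection of the proviral clone, titered by luciferase in MT-2. EC50 via median effect equation fit.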

[2] = Compound cytotoxicity, XTT-based colorimetric assay; format: cell-based; conditions: human; uninfected MT2 cells, day 4, XTT; read-out: CC50
Outline: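 CC50 derived from XTT colorimetric signal measured on day 4 in MT2 cells that were not infected. All other steps followed the antiviral assay protocol.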

Structure (SMILES)	EC50 [1] [nM]	CC50 at 4 days [2] [nM]
COCCCn1nc(NS(C)(=O)=O)c2c(Cl)ccc(-n3c([C@H](Cc4cc(F)cc(F)c4)NC(=O)Cn4nc(C(F)F)c5c4C(F)(F)[C@@H]4C[C@H]54)nc4nc(C5CCC(F)(F)CC5)cc(CN5CC(F)(F)C5)c4c3=O)c21 (atropisomer, axis not shown; (P)) [Example 538, N-[(1S)-1-[(3P)-3-[4-chloro-3-methanesulfonamido-1-(3-methoxypropyl)-1H-indazol-7-yl]-5-[(3,3-difluoroazetidin-1-yl)methyl]-7-(4,4-difluorocyclohexyl)-4-oxo-3H,4H-pyrido[2,3-d]pyrimidin-2-yl]-2-(3,5-difluorophenyl)ethyl]-2-[(2S,4R)-9-(difluoromethyl)-5,5-difluoro-7,8-diazatricyclo[4.3.0.0^2,4]nona-1(6),8-dien-7-yl]acetamide]	0.007	> 20
Cc1cc(C2(F)CCC(F)(F)CC2)nc2nc([C@H](Cc3cc(F)cc(F)c3)NC(=O)Cn3nc(C(F)F)c4c3C(F)(F)[C@@H]3C[C@H]43)n(-c3ccc(Cl)c4c(NS(C)(=O)=O)nn([C@H](C)C(=O)N5CC(C)(C)OC(C)(C)C5)c34)c(=O)c12 (atropisomer, axis not shown; (P)) [Example 749, N-[(1S)-1-[(3P)-3-{4-chloro-3-methanesulfonamido-1-[(2R)-1-oxo-1-(2,2,6,6-tetramethylmorpholin-4-yl)propan-2-yl]-1H-indazol-7-yl}-5-methyl-4-oxo-7-(1,4,4-trifluorocyclohexyl)-3H,4H-pyrido[2,3-d]pyrimidin-2-yl]-2-(3,5-difluorophenyl)ethyl]-2-[(2S,4R)-9-(difluoromethyl)-5,5-difluoro-7,8-diazatricyclo[4.3.0.0^2,^4]nona-1(6),8-dien-7-yl]acetamide]	0.018	> 20
Cc1cc(C2(F)CCC(F)(F)CC2)nc2nc([C@H](Cc3cc(F)cc(F)c3)NC(=O)Cn3nc(C(F)F)c4c3C(F)(F)[C@@H]3C[C@H]43)n(-c3ccc(Cl)c4c(NS(C)(=O)=O)nn(CCN5C[C@@H](C)OC(C)(C)C5)c34)c(=O)c12 (atropisomer, axis not shown; (P)) [Example 577, N-[(1S)-1-[(3P)-3-(4-chloro-3-methanesulfonamido-1-{2-[(6R)-2,2,6-trimethylmorpholin-4-yl]ethyl}-1H-indazol-7-yl)-5-methyl-4-oxo-7-(1,4,4-trifluorocyclohexyl)-3H,4H-pyrido[2,3-d]pyrimidin-2-yl]-2-(3,5-difluorophenyl)ethyl]-2-[(2S,4R)-9-(difluoromethyl)-5,5-difluoro-7,8-diazatricyclo[4.3.0.0^2,^4]nona-1(6),8-dien-7-yl]acetamide]	0.014	> 20
Cc1cc(C2(F)CCC(F)(F)CC2)nc2nc([C@H](Cc3cc(F)cc(F)c3)NC(=O)Cn3nc(C4CC4)c4c3C[C@@H]3C[C@H]43)n(-c3ccc(Cl)c4c(NS(C)(=O)=O)nn(C[C@@H](C)N5C[C@@H](C)O[C@@H](C)C5)c34)c(=O)c12 (relative stereo) [Example 723, N-[(1S)-1-[(3P)-3-{4-chloro-1-[(2R)-2-[(2R,6S)-2,6-dimethylmorpholin-4-yl]propyl]-3-methanesulfonamido-1H-indazol-7-yl}-5-methyl-4-oxo-7-(1,4,4-trifluorocyclohexyl)-3H,4H-pyrido[2,3-d]pyrimidin-2-yl]-2-(3,5-difluorophenyl)ethyl]-2-[(2R*,4R*)-9-cyclopropyl-7,8-diazatricyclo[4.3.0.0^2,^4]nona-1(6),8-dien-7-yl]acetamide]	0.012	> 20
COCCCn1nc(NS(C)(=O)=O)c2c(Cl)ccc(-n3c([C@H](Cc4cc(F)cc(F)c4)NC(=O)Cn4nc(C(F)F)c5c4C(F)(F)[C@@H]4C[C@H]54)nc4nc(C5CCC(F)(F)CC5)cc(NCCC5CCCCC5)c4c3=O)c21 (atropisomer, axis not shown; (P)) [Example 549, N-[(1S)-1-[(3P)-3-[4-chloro-3-methanesulfonamido-1-(3-methoxypropyl)-1H-indazol-7-yl]-5-[(2-cyclohexylethyl)amino]-7-(4,4-difluorocyclohexyl)-4-oxo-3H,4H-pyrido[2,3-d]pyrimidin-2-yl]-2-(3,5-difluorophenyl)ethyl]-2-[(2S,4R)-9-(difluoromethyl)-5,5-difluoro-7,8-diazatricyclo[4.3.0.0^2,^4]nona-1(6),8-dien-7-yl]acetamide]	0.258	> 20
CS(=O)(=O)Nc1nn(CCN2C[C@H](F)C[C@H](F)C2)c2c(-n3c([C@H](Cc4cc(F)cc(F)c4)NC(=O)Cn4nc(C(F)F)c5c4C(F)(F)[C@@H]4C[C@H]54)nc4nc(C5CCC(F)(F)CC5)cc(CF)c4c3=O)ccc(Cl)c12 (atropisomer, axis not shown; (P)) [Example 512, N-[(1S)-1-[(3P)-3-(4-chloro-1-{2-[(3R,5S)-3,5-difluoropiperidin-1-yl]ethyl}-3-methanesulfonamido-1H-indazol-7-yl)-7-(4,4-difluorocyclohexyl)-5-(fluoromethyl)-4-oxo-3H,4H-pyrido[2,3-d]pyrimidin-2-yl]-2-(3,5-difluorophenyl)ethyl]-2-[(2S,4R)-9-(difluoromethyl)-5,5-difluoro-7,8-diazatricyclo[4.3.0.0^2,^4]nona-1(6),8-dien-7-yl]acetamide]	0.006	> 20
CNCc1cc(C2CCC(F)(F)CC2)nc2nc([C@H](Cc3cc(F)cc(F)c3)NC(=O)Cn3nc(C(F)F)c4c3C(F)(F)[C@@H]3C[C@H]43)n(-c3ccc(Cl)c4c(NS(C)(=O)=O)nn(CCCOC)c34)c(=O)c12 (atropisomer, axis not shown; (P)) [Example 472, N-[(1S)-1-[(3P)-3-[4-chloro-3-methanesulfonamido-1-(3-methoxypropyl)-1H-indazol-7-yl]-7-(4,4-difluorocyclohexyl)-5-[(methylamino)methyl]-4-oxo-3H,4H-pyrido[2,3-d]pyrimidin-2-yl]-2-(3,5-difluorophenyl)ethyl]-2-[(2S,4R)-9-(difluoromethyl)-5,5-difluoro-7,8-diazatricyclo[4.3.0.0^2,^4]nona-1(6),8-dien-7-yl]acetamide]	0.087	> 20
CC1(F)CCN(CCn2nc(NS(C)(=O)=O)c3c(Cl)ccc(-n4c([C@H](Cc5cc(F)cc(F)c5)NC(=O)Cn5nc(C(F)F)c6c5C(F)(F)[C@@H]5C[C@H]65)nc5nc(C6CCC(F)(F)CC6)ccc5c4=O)c32)CC1 (atropisomer, axis not shown; (P)) [Example 167, N-[(1S)-1-[(3P)-3-{4-chloro-1-[2-(4-fluoro-4-methylpiperidin-1-yl)ethyl]-3-methanesulfonamido-1H-indazol-7-yl}-7-(4,4-difluorocyclohexyl)-4-oxo-3H,4H-pyrido[2,3-d]pyrimidin-2-yl]-2-(3,5-difluorophenyl)ethyl]-2-[(2S,4R)-9-(difluoromethyl)-5,5-difluoro-7,8-diazatricyclo[4.3.0.0^2,^4]nona-1(6),8-dien-7-yl]acetamide]	0.024	> 50
Cc1cc(C2(F)CCC(F)(F)CC2)nc2nc([C@H](Cc3cc(F)cc(F)c3)NC(=O)Cn3nc(C(F)F)c4c3C(F)(F)[C@@H]3C[C@H]43)n(-c3ccc(Cl)c4c(NS(C)(=O)=O)nn(CCN5C[C@H](F)C[C@H](F)C5)c34)c(=O)c12 (atropisomer, axis not shown; (P)) [Example 11, N-[(1S)-1-[(3P)-3-(4-chloro-1-{2-[(3R,5S)-3,5-difluoropiperidin-1-yl]ethyl}-3-methanesulfonamido-1H-indazol-7-yl)-5-methyl-4-oxo-7-(1,4,4-trifluorocyclohexyl)-3H,4H-pyrido[2,3-d]pyrimidin-2-yl]-2-(3,5-difluorophenyl)ethyl]-2-[(2S,4R)-9-(difluoromethyl)-5,5-difluoro-7,8-diazatricyclo[4.3.0.0^2,4]nona-1(6),8-dien-7-yl]acetamide]	0.009	> 20000
Cc1cc(C2CCC(F)(F)CC2)nc2nc([C@H](Cc3cc(F)cc(F)c3)NC(=O)Cn3nc(C(F)F)c4c3C(F)(F)[C@@H]3C[C@H]43)n(-c3ccc(Cl)c4c(NS(C)(=O)=O)nn(CCN5C[C@@H](C)OC(C)(C)C5)c34)c(=O)c12 (atropisomer, axis not shown; (P)) [Example 454, N-[(1S)-1-[(3P)-3-(4-chloro-3-methanesulfonamido-1-{2-[(6R)-2,2,6-trimethylmorpholin-4-yl]ethyl}-1H-indazol-7-yl)-7-(4,4-difluorocyclohexyl)-5-methyl-4-oxo-3H, 4H-pyrido[2,3-d]pyrimidin-2-yl]-2-(3,5-difluorophenyl)ethyl]-2-[(2S,4R)-9-(difluoromethyl)-5,5-difluoro-7,8-diazatricyclo[4.3.0.0^2,^4]nona-1(6),8-dien-7-yl]acetamide]	0.01	> 20
C[C@@H]1CN(CCn2nc(NS(C)(=O)=O)c3c(Cl)ccc(-n4c([C@H](Cc5cc(F)cc(F)c5)NC(=O)Cn5nc(C6CC6)c6c5C[C@@H]5C[C@H]65)nc5nc(C6CCC(F)(F)CC6)cc(C(F)F)c5c4=O)c32)CC(C)(C)O1 (atropisomer, axis not shown; (P)) [Example 462, N-[(1S)-1-[(3P)-3-(4-chloro-3-methanesulfonamido-1-{2-[(6R)-2,2,6-trimethylmorpholin-4-yl]ethyl}-1H-indazol-7-yl)-7-(4,4-difluorocyclohexyl)-5-(difluoromethyl)-4-oxo-3H,4H-pyrido[2,3-d]pyrimidin-2-yl]-2-(3,5-difluorophenyl)ethyl]-2-[(2S,4S)-9-cyclopropyl-7,8-diazatricyclo[4.3.0.0^2,^4]nona-1(6),8-dien-7-yl]acetamide]	0.019	> 20
